Activity, ΔTm and Kd data for eight compounds are collected here from ChEMBL document CHEMBL3822446, “Synthesis of 1H-pyrrolo[3,2-h]quinoline-8-amine derivatives that target CTG trinucleotide repeats” (Bioorg Med Chem Lett, 2016).

Active and inactive are the calls of the source. The rule behind the calls is not given here.

The nature of assay [1]: Binding affinity to 5'-Biotinylated DNA d(CTG)9-3' (unknown origin) assessed as red shifting of abosrption band at 349 nm at 10 uM by UV-spectrophotometric analysis.
Assay [2] in a line: Binding affinity to duplex DNA dT bulge (unknown origin) assessed as change in melting point at 50 uM by UV-Vis spectrophotometric analysis.
Assay [3] in a line: Binding affinity to duplex DNA dA bulge (unknown origin) assessed as change in melting point at 50 uM by UV-Vis spectrophotometric analysis.
Assay [4] can be described thus: Binding affinity to duplex DNA dG bulge (unknown origin) assessed as change in melting point at 50 uM by UV-Vis spectrophotometric analysis.
The nature of assay [5]: Binding affinity to duplex DNA dC bulge (unknown origin) assessed as change in melting point at 50 uM by UV-Vis spectrophotometric analysis.
A short description of assay [6]: Binding affinity to full match duplex DNA (unknown origin) assessed as change in melting point at 50 uM by UV-Vis spectrophotometric analysis.
Assay [7] is described as follows: Binding affinity to 5'-biotinylated DNA d(CTG)9-3' (unknown origin) after 120 sec by SPR assay. The conditions noted are these: read-out: Kd(app).
Assay [8] can be described thus: Binding affinity to 5'-Biotinylated DNA d(CCG)9-3' (unknown origin) after 120 sec by SPR assay. The conditions noted are these: read-out: Kd(app).
Assay [9] can be described thus: Binding affinity to 5'-Biotinylated DNA d(CAG)9-3' (unknown origin) at 0.63 to 10 uM after 120 sec by SPR assay.
Assay [10] in a line: Binding affinity to 5'-Biotinylated DNA d(CGG)9-3' (unknown origin) at 0.63 to 10 uM after 120 sec by SPR assay.
Assay [11] can be described thus: Binding affinity to 5'-Biotinylated DNA d(CTG)9-3' (unknown origin) by isothermal titration calorimetry.

With `Nc1cccc(N)n1`, the outcome in assay [1] was inactive.
As to `NCCC(=O)Nc1ccc2ccccc2n1`, in [2], the ΔTm came out at 0.3 °C.
With `NCCC(=O)Nc1ccc2ccc3cc[nH]c3c2n1`, the ΔTm was determined as 4.7 °C in assay [2]; 1.7 °C in [3]; 1.7 °C in assay [4]; 3.5 °C in assay [5]; 0.9 °C in assay [6].
Regarding `NCC(=O)Nc1ccc2ccc3cc[nH]c3c2n1`, the ΔTm in assay [2] was 2.9 °C.
For `NCCCNC(=O)Nc1ccc2ccc3cc[nH]c3c2n1`, the ΔTm in assay [2] amounted to 5.2 °C; in [3], 1.4 °C; in assay [4], 1 °C; in assay [5], 5.8 °C; in [6] it was 0.8 °C. Further, the Kd in [7] came out at 20 µM; in assay [8] it was 33 µM; in assay [11], 17 µM. In addition, the result in assay [9] and in assay [10] was inactive. Further, the Activity in assay [1] came to 8 nm.
`NCCCC(=O)Nc1ccc2ccc3cc[nH]c3c2n1`: the ΔTm in assay [2] was 3.6 °C.
Same read-out and setting: to `NCCCNC(=O)Nc1ccc2ccccc2n1` belongs 1.3 °C; to `NCCCCC(=O)Nc1ccc2ccc3cc[nH]c3c2n1`, 2.6 °C.
